In one assay the test system is TNF-α. Briefly: LPS stimulation of TNF production by U937 cells. To be noted: for inhibition at 1 µM / IC50: Homo sapiens; for inhibition at 1 µM: U-937, @ 1.0 uM, read-out: U937 Cell % inhib @ conc. The assay is classed as cell-based, human. The procedure, abridged: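 PMA-differentiated human U937 cells (20 ng/ml PMA, 24 h, then 24-48 h rest) at 2 million cells/ml, 0.1% DMSO final, stimulated with E. coli LPS (100 ng/ml final) for 4 h at 37° C. TNF-α in medium measured by ELISA; IC50 in μM.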

For a further assay, the target named is T1, human p38 kinase alpha (Homo sapiens, UniProt Q16539).
T1 construct: The coding region of the human p38a cDNA was obtained by PCR-amplification from RNA isolated from the human monocyte cell line THP.1; GST (N); made in house; host or cells: E. coli DH10B
T1 sequence (Q16539 whole entry): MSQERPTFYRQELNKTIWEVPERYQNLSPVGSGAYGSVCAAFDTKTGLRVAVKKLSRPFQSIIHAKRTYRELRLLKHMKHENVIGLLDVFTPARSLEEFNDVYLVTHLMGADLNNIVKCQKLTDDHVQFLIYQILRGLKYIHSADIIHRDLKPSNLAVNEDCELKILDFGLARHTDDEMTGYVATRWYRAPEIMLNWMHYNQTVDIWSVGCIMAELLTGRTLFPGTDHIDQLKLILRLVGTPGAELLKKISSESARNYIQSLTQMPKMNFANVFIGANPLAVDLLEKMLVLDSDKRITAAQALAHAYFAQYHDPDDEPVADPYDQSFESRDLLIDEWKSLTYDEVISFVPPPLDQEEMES
As to the kind of experiment: p38 kinase in vitro assay, phosphorylation of biotinylated PHAS-I with gamma 32P-ATP. Conditions: for inhibition at 10 µM / inhibition at 1 µM: read-out: P38 alpha kinase % inhib @ conc. The assay is classed as biochemical. The procedure, abridged: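 Radiometric filter-capture read-out: streptavidin plates trap biotin-PHAS-I labelled by activated (MKK6) human p38α from γ-32P-ATP. Buffer 25 mM HEPES pH 7.5, 10 mM magnesium acetate, 50 μM cold ATP; reactions 1 h or overnight at 30 °C; inhibitors 10-fold dilutions 100 to 0.001 μM, triplicates, 1% DMSO.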

Setting [1] is: read-out: P38 alpha kinase IC50.
Setting [2] is: U-937, LPS-stimulated U937 cells, read-out: U937 IC50.
Where [3] appears, read: p38α in vitro, PHAS-I assay procedure, read-out: p38^1 IC50.
Setting [4] is: U-937, TNF production, LPS-stimulated human U937 cells, read-out: U937 Cell IC50.

Read-outs that look alike come from different tables or passages of the source.

As usually defined, the IC50 is the midpoint of a concentration-inhibition curve. For the compound `O=C(NCc1[nH]nc(-c2ccc(F)cc2)c1-c1ccncc1)c1ccc(F)cc1F` [Example B-0299], the inhibition at 1 µM with TNF-α came to 54%. Further, the half-inhibitory concentration (IC50) on human p38 kinase alpha (setting [1]) was 870 nM.
With `O=C(NCc1[nH]nc(-c2ccc(F)cc2)c1-c1ccncc1)Nc1cc(Cl)cc(Cl)c1` [Example B-0164], the inhibition at 1 µM with TNF-α stood at 20%. The inhibition at 10 µM on human p38 kinase alpha came out at 37%.
On to `Cc1c(Cl)cccc1S(=O)(=O)N[C@H](C)c1[nH]nc(-c2ccc(F)cc2)c1-c1ccncc1` [Example B-0447], for which the inhibition at 1 µM with TNF-α was 71%. The IC50 on human p38 kinase alpha (setting [1]) is 190 nM.
In the same order, the values of `Cc1noc(C)c1S(=O)(=O)NCc1[nH]nc(-c2ccc(F)cc2)c1-c1ccncc1` [Example B-0251] are 1% and 310 nM.
The like results for `C[C@@H](NC(=O)c1cc(Cl)cc(Cl)c1)c1[nH]nc(-c2ccc(F)cc2)c1-c1ccncc1` [Example B-0498] were, in that order, 11% and 330 nM.
In the same order, the values of `C=CCNC(=O)N[C@H](C)c1[nH]nc(-c2ccc(F)cc2)c1-c1ccncc1` [Example B-0412] are 48% and 240 nM.
As for `O=C(NCc1[nH]nc(-c2ccc(F)cc2)c1-c1ccncc1)N[C@@H]1C[C@@H]1c1ccccc1` [Example B-0153], the values for the inhibition at 1 µM in the assay with TNF-α and at human p38 kinase alpha were 21% and 57%, respectively.
As to `C[C@@H](NC(=O)c1ccc(F)cc1C(F)(F)F)c1[nH]nc(-c2ccc(F)cc2)c1-c1ccncc1` [Example B-0511], the inhibition at 1 µM in the assay with TNF-α is 90%. In addition, the IC50 at human p38 kinase alpha (setting [1]) is 7 nM.
With `CSCCC(=O)NCc1[nH]nc(-c2ccc(F)cc2)c1-c1ccncc1` [Example B-0081], the inhibition at 1 µM with TNF-α was 13%; at human p38 kinase alpha, 92%.
For `COc1ccc(OC)c(S(=O)(=O)N[C@H](C)c2[nH]nc(-c3ccc(F)cc3)c2-c2ccncc2)c1` [Example B-0457], the inhibition at 1 µM with TNF-α is 81%. The IC50 at human p38 kinase alpha (setting [1]) was 89 nM.
`Clc1ccc(-c2n[nH]cc2-c2ccncc2)cc1Cl` [Example A-297, 4-[3-(3,4-dichlorophenyl)-1H-pyrazol-4-yl]pyridine]: the IC50 with TNF-α (setting [2]) was 170 nM; on human p38 kinase alpha (setting [3]), 520 nM.
Consider `CC(C)(C)C(=O)NC(Cc1ccccc1)c1[nH]nc(-c2ccc(F)cc2)c1-c1ccncc1` (stereo not shown) [Example B-0746], for which the “U937 Cell % inhib @ conc.” value in the assay on TNF-α (@ 1.0 uM) was determined as 22.0% @ 1.0 uM. On human p38 kinase alpha (setting [1]), the IC50 amounted to 10 nM.
In the case of `CC(C)S(=O)(=O)NCc1[nH]nc(-c2ccc(F)cc2)c1-c1ccncc1` [Example B-0106], the IC50 with TNF-α (setting [4]) was determined as 5000 nM. Moreover, on human p38 kinase alpha, the inhibition at 1 µM is 62%.
Regarding `C[C@@H](NC(=O)N(C)C)c1[nH]nc(-c2ccc(F)cc2)c1-c1ccncc1` [Example B-0407], the inhibition at 1 µM in the assay with TNF-α was found to be 27%. In addition, the IC50 at human p38 kinase alpha (setting [1]) stood at 760 nM.
On to `CN(C)CCn1cc(-c2ccnc(CCc3ccc(F)cc3)c2)c(-c2ccc(F)cc2)n1` [Example A-275, 3-(4-fluorophenyl)-4-[2-[2-(4-fluorophenyl)ethyl]-4-pyridinyl]-N,N-dimethyl-1H-pyrazole-1-ethanamine], for which the IC50 is over 10000 nM in the assay with TNF-α (setting [2]) and 10100 nM at human p38 kinase alpha (setting [3]).
As to `O=S(=O)(NCc1[nH]nc(-c2ccc(F)cc2)c1-c1ccncc1)c1cccc2nonc12` [Example B-0252], in the assay with TNF-α, the inhibition at 1 µM is 54%. Further, the IC50 on human p38 kinase alpha (setting [1]) came out at 41 nM.
In the case of `CC(=O)O[C@@H](C)C(=O)NCc1[nH]nc(-c2ccc(F)cc2)c1-c1ccncc1` [Example B-0083], the values for the IC50 in the assay with TNF-α (setting [4]) and at human p38 kinase alpha (setting [1]) were 6510 nM and 220 nM, respectively.
With `CS(=O)(=O)c1ccccc1S(=O)(=O)NCc1[nH]nc(-c2ccc(F)cc2)c1-c1ccncc1` [Example B-0261], in the assay with TNF-α, the inhibition at 1 µM came to 23%. Also, the IC50 at human p38 kinase alpha (setting [1]) stood at 490 nM.
As for `O=C(NCc1[nH]nc(-c2ccc(F)cc2)c1-c1ccncc1)Nc1ccccc1-c1ccccc1` [Example B-0181], the values for the inhibition at 1 µM in the assay on TNF-α and at human p38 kinase alpha were 2% and 5%, respectively.
Turning to `CC(=O)Nc1nc(C)c(S(=O)(=O)NCc2[nH]nc(-c3ccc(F)cc3)c2-c2ccncc2)s1` [Example B-0222], in the assay on TNF-α, the inhibition at 1 µM stood at 29%. Also, at human p38 kinase alpha (setting [1]), the IC50 stood at 400 nM.
The like results for `C[C@@H](NC(=O)c1ccno1)c1[nH]nc(-c2ccc(F)cc2)c1-c1ccncc1` [Example B-0364] were, in that order, 27% and 1440 nM.
The like results for `O=S(=O)(NCc1[nH]nc(-c2ccc(F)cc2)c1-c1ccncc1)c1cccc(Br)c1` [Example B-0235] were, in that order, 90% and 1310 nM.
The like results for `C[C@@H](NC(=O)c1ccccc1Br)c1[nH]nc(-c2ccc(F)cc2)c1-c1ccncc1` [Example B-0526] were, in that order, 87% and 31 nM.
On to `O=C(NCc1[nH]nc(-c2ccc(F)cc2)c1-c1ccncc1)c1ccc(F)c(C(F)(F)F)c1` [Example B-0287], for which the inhibition at 1 µM with TNF-α came to 22%. Further, the IC50 on human p38 kinase alpha (setting [1]) was 4000 nM.
Regarding `C[C@@H](NC(=O)c1cccc(Br)c1)c1[nH]nc(-c2ccc(F)cc2)c1-c1ccncc1` [Example B-0362], in the assay with TNF-α, the inhibition at 1 µM was found to be 27%. Moreover, the IC50 on human p38 kinase alpha (setting [1]) stood at 520 nM.
In the same order, the values of `C[C@@H](NC(=O)c1cc(F)c(F)cc1F)c1[nH]nc(-c2ccc(F)cc2)c1-c1ccncc1` [Example B-0521] are 52% and 1370 nM.
The like results for `O=C(NCc1[nH]nc(-c2ccc(F)cc2)c1-c1ccncc1)[C@@H]1CCCN1C(=O)OCC1c2ccccc2-c2ccccc21` [Example B-0195] were, in that order, 55% and 1030 nM.
On to `CN(C)S(=O)(=O)NCc1[nH]nc(-c2ccc(F)cc2)c1-c1ccncc1` [Example B-0264], for which the inhibition at 1 µM with TNF-α worked out at 18%. Moreover, at human p38 kinase alpha (setting [1]), the IC50 came to 140 nM.
Regarding `Cc1cccc(-c2n[nH]cc2-c2ccnc(C)c2)c1` [Example A-143, 2-methyl-4-[3-(3-methylphenyl)-1H-pyrazol-4-yl]pyridine], the IC50 with TNF-α (U-937, LPS-stimulated U937 cells, read-out: U937 Cell Assay IC50) was 301 nM; on human p38 kinase alpha (activated human p38 kinase alpha, PHAS-I substrate, 50 μM unlabeled ATP, read-out: p38 kinase IC50) it was under 100 nM.
For `C[C@@H](NC(=O)c1ccc(Cl)cc1)c1[nH]nc(-c2ccc(F)cc2)c1-c1ccncc1` [Example B-0493], in the assay with TNF-α, the inhibition at 1 µM was found to be 36%. For the same compound, the IC50 at human p38 kinase alpha (setting [1]) amounted to 300 nM.
In the case of `CCc1ccc(S(=O)(=O)NCc2[nH]nc(-c3ccc(F)cc3)c2-c2ccncc2)cc1` [Example B-0132], the inhibition at 1 µM is 8% in the assay on TNF-α and 76% on human p38 kinase alpha.
Consider `CCOC(=O)c1ccc(NC(=O)NCc2[nH]nc(-c3ccc(F)cc3)c2-c2ccncc2)cc1` [Example B-0161], for which the inhibition at 1 µM in the assay with TNF-α was found to be 13%. Moreover, on human p38 kinase alpha, the inhibition at 10 µM was determined as 72%.
`CC(C)(C)c1ccc(S(=O)(=O)NCc2[nH]nc(-c3ccc(F)cc3)c2-c2ccncc2)cc1` [Example B-0099]: the IC50 in the assay on TNF-α (setting [4]) was over 1000 nM. Besides, the inhibition at 1 µM at human p38 kinase alpha came to 43%.
Take `O=C(NCc1[nH]nc(-c2ccc(F)cc2)c1-c1ccncc1)c1cc(C(F)(F)F)ccc1F` [Example B-0281]: the inhibition at 1 µM in the assay with TNF-α is 24%. Moreover, the IC50 on human p38 kinase alpha (setting [1]) was found to be 7370 nM.
In the same order, the values of `O=C(NCc1[nH]nc(-c2ccc(F)cc2)c1-c1ccncc1)c1cc(F)cc(F)c1` [Example B-0277] are 34% and 680 nM.
In the same order, the values of `C[C@@H](NS(=O)(=O)c1cn(C)cn1)c1[nH]nc(-c2ccc(F)cc2)c1-c1ccncc1` [Example B-0486] are 80% and 240 nM.
The like results for `O=C(NCc1[nH]nc(-c2ccc(F)cc2)c1-c1ccncc1)c1cc(F)cc(C(F)(F)F)c1` [Example B-0288] were, in that order, 26% and 4460 nM.
On to `Cc1ccccc1C(=O)NCc1[nH]nc(-c2ccc(F)cc2)c1-c1ccncc1` [Example B-0267], for which the inhibition at 1 µM with TNF-α was 11%. Further, the IC50 at human p38 kinase alpha (setting [1]) was 480 nM.
On to `Cc1c(C)c(S(=O)(=O)NCc2[nH]nc(-c3ccc(F)cc3)c2-c2ccncc2)c(C)c2c1OC(C)(C)CC2` [Example B-0257], for which the inhibition at 1 µM with TNF-α stood at 11%. Besides, the IC50 on human p38 kinase alpha (setting [1]) was determined as 1710 nM.
In the case of `COC(=O)CNc1n[nH]c(-c2ccc(F)cc2)c1-c1ccncc1` [Example A-292, N-[5-(4-fluorophenyl)-4-(4-pyridinyl)-1H-pyrazol-3-yl]glycine methyl ester], the values for the IC50 in the assay on TNF-α (setting [2]) and at human p38 kinase alpha (setting [3]) were over 10000 nM and 1150 nM, respectively.
Turning to `CC(C)NC(=O)N[C@H](C)c1[nH]nc(-c2ccc(F)cc2)c1-c1ccncc1` [Example B-0401], in the assay on TNF-α, the inhibition at 1 µM worked out at 52%. For the same compound, the IC50 at human p38 kinase alpha (setting [1]) amounted to 460 nM.
The like results for `C[C@@H](NS(=O)(=O)c1ccccc1Cl)c1[nH]nc(-c2ccc(F)cc2)c1-c1ccncc1` [Example B-0463] were, in that order, 95% and 52 nM.
With `CC(=O)OC(C)(C)C(=O)N[C@H](C)c1[nH]nc(-c2ccc(F)cc2)c1-c1ccncc1` [Example B-0358], the inhibition at 1 µM in the assay with TNF-α was 17%. The IC50 at human p38 kinase alpha (setting [1]) came to 370 nM.
Regarding `CC(C)COC(=O)NCc1[nH]nc(-c2ccc(F)cc2)c1-c1ccncc1` [Example B-0009], the values for the IC50 with TNF-α (setting [4]) and at human p38 kinase alpha (setting [1]) were 720 nM and 40 nM, respectively.

Source of the values: patent publication US6525059B1, “Substituted pyrazoles as p38 kinase inhibitors” (G. D. Searle & Company, priority 1998, dated 2003).
